Measured values: paper PMC3931418 (Nature, 2014)

Target: BRIL-δOR(ΔN/ΔC) (Sf9) (Homo sapiens, UniProt P41143, P37S)
Format: binding

Sequence of BRIL-δOR(ΔN/ΔC) (Sf9) (P41143 36-338 P37S): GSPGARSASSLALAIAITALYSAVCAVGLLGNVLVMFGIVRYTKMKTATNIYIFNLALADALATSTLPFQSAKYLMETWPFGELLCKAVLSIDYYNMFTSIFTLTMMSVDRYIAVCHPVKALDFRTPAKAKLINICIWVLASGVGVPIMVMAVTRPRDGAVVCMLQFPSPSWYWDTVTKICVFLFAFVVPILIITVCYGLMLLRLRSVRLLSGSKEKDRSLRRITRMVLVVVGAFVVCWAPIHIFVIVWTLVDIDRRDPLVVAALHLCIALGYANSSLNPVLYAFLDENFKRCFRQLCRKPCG

`[Na+]` [sodium] was tested. Which “Hill Coefficient” value did it give?
Its value is 0.79 ± 0.02.

What about the “Na+ pKB ± SEM” value of the same compound?
Its value is 1.79 ± 0.11.

What about the “pα ± SEM” value of the same compound?
Its value is 0.86 ± 0.05.

And the α?
The α was 0.138.

What about the Kb (read-out: Na+ KB) of the same compound?
Its Kb is 15.9 mM.
